Measurements reported in patent US9603889B2, “IAP antagonists” (BRISTOL-MYERS SQUIBB COMPANY, priority 2012, dated 2017).

biological target: XIAP BIR3 (N-His-Tb-BIR3(241-356, XIAP)) (Homo sapiens (Human), UniProt P98170); type: binding; settings: 130 nM N-His-Tb-BIR3(241-356, XIAP), 1.4 nM fluoresceinated modified SMAC peptide, 60 minutes room temperature; read-out: XIAP BIR3 FPA IC50
Sequence (P98170 241-356): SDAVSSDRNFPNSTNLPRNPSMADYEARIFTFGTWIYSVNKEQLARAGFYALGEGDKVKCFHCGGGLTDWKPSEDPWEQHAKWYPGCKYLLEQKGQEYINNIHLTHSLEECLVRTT

`CN[C@@H](C)C(=O)N[C@H](C(=O)N1C[C@@H](NC(=O)c2ccc(CN(C(=O)[C@@H]3Cc4ccccc4CN3C(=O)[C@@H](NC(=O)[C@H](C)NC)C(C)(C)C)[C@H](C)Cc3ccccc3F)cc2)C[C@H]1C(=O)N[C@@H]1CCCc2ccccc21)C(C)(C)C` [Example 25, (S)-2-((S)-3,3-Dimethyl-2-((S)-2-(methylamino)propanamido)butanoyl)-N-(4-(((3S,5S)-1-((S)-3,3-dimethyl-2-((S)-2-(methylamino)propanamido)butanoyl)-5-(((R)-1,2,3,4-tetrahydro-naphthalen-1-yl)carbamoyl)pyrrolidin-3-yl)carbamoyl)benzyl)-N-((R)-1-(2-fluorophenyl)propan-2-yl)-1,2,3,4-tetrahydro-isoquinoline-3-carboxamide] was tested. Which IC50 did it give?
The IC50 was 60 nM.

Which IC50 does the source give for `CN[C@@H](C)C(=O)N[C@H](C(=O)N1C[C@@H](NC(=O)n2ccc3cc(CN(C(=O)[C@@H]4Cc5ccccc5CN4C(=O)[C@@H](NC(=O)[C@H](C)NC)C(C)(C)C)C(COC)c4ccccc4)ccc32)C[C@H]1C(=O)N[C@@H]1CCCc2ccccc21)C(C)(C)C` (stereo in doubt) [Example 9, (S)-2-((S)-3,3-Dimethyl-2-((S)-2-(methylamino)propanamido)butanoyl)-N-((1-(((3S,5S)-1-((S)-3,3-dimethyl-2-((S)-2-(methylamino)propanamido)butanoyl)-5-(((R)-1,2,3,4-tetrahydronaphthalen-1-yl)carbamoyl)pyrrolidin-3-yl)carbamoyl)-1H-indol-5-yl)methyl)-N-((S)-2-methoxy-1-phenylethyl)-1,2,3,4-tetrahydroisoquinoline-3-carboxamide] here?
The IC50 was 130 nM.

With `CC[C@H](c1ccccc1)N(Cc1ccc(C(=O)N[C@H]2C[C@@H](C(=O)N[C@@H]3CCCc4ccccc43)N(C(=O)[C@@H](NC(=O)[C@H](C)NC)C(C)(C)C)C2)cc1)C(=O)[C@@H]1Cc2ccccc2CN1C(=O)[C@@H](NC(=O)[C@H](C)NC)C(C)(C)C` [Example 20, (S)-2-((S)-3,3-Dimethyl-2-((S)-2-(methylamino)propanamido)butanoyl)-N-(4-(((3S,5S)-1-((S)-3,3-dimethyl-2-((S)-2-(methylamino)propanamido)butanoyl)-5-(((R)-1,2,3,4-tetrahydro-naphthalen-1-yl)carbamoyl)pyrrolidin-3-yl)carbamoyl)benzyl)-N-((R)-1-phenylpropyl)-1,2,3,4-tetra-hydroisoquinoline-3-carboxamide] as the compound, how does the IC50 read?
Its IC50 is 110 nM.

With `CN[C@@H](C)C(=O)N[C@H](C(=O)N1C[C@@H](NC(=O)C2(CN(C(=O)[C@@H]3Cc4ccccc4CN3C(=O)[C@@H](NC(=O)[C@H](C)NC)C(C)(C)C)[C@H](C)c3cccc(F)c3F)CC2)C[C@H]1C(=O)N[C@@H]1CCCc2ccccc21)C(C)(C)C` [Example 43, (S)-N-((R)-1-(2,3-Difluorophenyl)ethyl)-2-((S)-3,3-dimethyl-2-((S)-2-(methylamino)propanamido)butanoyl)-N-((1-(((3S,5S)-1-((S)-3,3-dimethyl-2-((S)-2-(methylamino)propanamido)butanoyl)-5-(((R)-1,2,3,4-tetrahydronaphthalen-1-yl)carbamoyl)pyrrolidin-3-yl)carbamoyl)cyclopropyl)methyl)-1,2,3,4-tetrahydroisoquinoline-3-carboxamide] as the compound, how does the IC50 read?
The IC50 was 180 nM.

How did the IC50 turn out when `CN[C@@H](C)C(=O)N[C@H](C(=O)N1C[C@@H](NC(=O)c2ccc(CN(Cc3ccccc3)C(=O)[C@@H]3Cc4ccccc4CN3C(=O)[C@@H](NC(=O)[C@H](C)NC)C(C)(C)C)cc2)C[C@H]1C(=O)N[C@@H]1CCCc2ccccc21)C(C)(C)C` [Example 13, (S)-N-Benzyl-2-((S)-3,3-dimethyl-2-((S)-2-(methylamino)propanamido)butanoyl)-N-(4-(((3S,5S)-1-((S)-3,3-dimethyl-2-((S)-2-(methylamino)propanamido)butanoyl)-5-(((R)-1,2,3,4-tetrahydro-naphthalen-1-yl)carbamoyl)pyrrolidin-3-yl)carbamoyl)benzyl)-1,2,3,4-tetra-hydroisoquinoline-3-carboxamide] was run?
The IC50 was 40 nM.

`CN[C@@H](C)C(=O)N[C@H](C(=O)N1C[C@@H](NC(=O)c2ccc(CN(Cc3cccc(Cl)c3Cl)C(=O)[C@@H]3Cc4ccccc4CN3C(=O)[C@@H](NC(=O)[C@H](C)NC)C(C)(C)C)cc2)C[C@H]1C(=O)N[C@@H]1CCCc2ccccc21)C(C)(C)C` [Example 11, (S)-N-(2,3-Dichlorobenzyl)-2-((S)-3,3-dimethyl-2-((S)-2-(methylamino)propanamido)butanoyl)-N-(4-(((3S,5S)-1-((S)-3,3-dimethyl-2-((S)-2-(methylamino)propanamido)butanoyl)-5-(((R)-1,2,3,4-tetrahydro-naphthalen-1-yl)carbamoyl)pyrrolidin-3-yl)carbamoyl)benzyl)-1,2,3,4-tetra-hydroisoquinoline-3-carboxamide] was tested. Which IC50 did it give?
The IC50 was 70 nM.

`CN[C@@H](C)C(=O)N[C@H](C(=O)N1CC(NC(=O)c2cccc(CN(C(=O)[C@@H]3Cc4ccccc4CN3C(=O)[C@@H](NC(=O)[C@H](C)NC)C(C)(C)C)C(COC)c3ccccc3)c2)C[C@H]1C(=O)NC1CCCc2ccccc21)C(C)(C)C` (stereo in doubt) [Example 39, (S)-2-((S)-3,3-Dimethyl-2-((S)-2-(methylamino)propanamido)butanoyl)-N-(3-(((3S,5S)-1-((S)-3,3-dimethyl-2-((S)-2-(methylamino)propanamido)butanoyl)-5-(((R)-1,2,3,4-tetrahydronaphthalen-1-yl)carbamoyl)pyrrolidin-3-yl)carbamoyl)benzyl)-N-((S)-2-methoxy-1-phenylethyl)-1,2,3,4-tetrahydroisoquinoline-3-carboxamide] was tested. Which IC50 did it give?
Its IC50 is 80 nM.

`CCC[C@H](c1ccccc1)N(Cc1ccc(C(=O)N[C@H]2C[C@@H](C(=O)N[C@@H]3CCCc4ccccc43)N(C(=O)[C@@H](NC(=O)[C@H](C)NC)C(C)(C)C)C2)cc1)C(=O)[C@@H]1Cc2ccccc2CN1C(=O)[C@@H](NC(=O)[C@H](C)NC)C(C)(C)C` [Example 7, (S)-2-((S)-3,3-Dimethyl-2-((S)-2-(methylamino)propanamido)butanoyl)-N-(4-(((3S,5S)-1-((S)-3,3-dimethyl-2-((S)-2-(methylamino)propanamido)butanoyl)-5-(((R)-1,2,3,4-tetrahydronaphthalen-1-yl)carbamoyl)pyrrolidin-3-yl)carbamoyl)benzyl)-N-((R)-1-phenylbutyl)-1,2,3,4-tetrahydroisoquinoline-3-carboxamide] was tested. Which IC50 did it give?
Its IC50 is 190 nM.

Which IC50 does the source give for `CN[C@@H](C)C(=O)N[C@H](C(=O)N1C[C@@H](NC(=O)c2ccc(CN(C(=O)[C@@H]3Cc4ccccc4CN3C(=O)[C@@H](NC(=O)[C@H](C)NC)C(C)(C)C)[C@H](C)c3ccccc3Cl)cc2)C[C@H]1C(=O)N[C@@H]1CCCc2ccccc21)C(C)(C)C` [Example 5, (S)-N-((R)-1-(2-Chlorophenyl)ethyl)-2-((S)-3,3-dimethyl-2-((S)-2-(methylamino)propanamido)butanoyl)-N-(4-(((3S,5S)-1-((S)-3,3-dimethyl-2-((S)-2-(methylamino)propanamido)butanoyl)-5-(((R)-1,2,3,4-tetrahydronaphthalen-1-yl)carbamoyl)pyrrolidin-3-yl)carbamoyl)benzyl)-1,2,3,4-tetrahydroisoquinoline-3-carboxamide] here?
The IC50 was 220 nM.

For `CN[C@@H](C)C(=O)N[C@H](C(=O)N1C[C@@H](NC(=O)c2ccc(CN(C(=O)[C@@H]3Cc4ccccc4CN3C(=O)[C@@H](NC(=O)[C@H](C)NC)C(C)(C)C)[C@H](C)c3ccc(F)cc3)cc2)C[C@H]1C(=O)N[C@@H]1CCCc2ccccc21)C(C)(C)C` [Example 4, (S)-2-((S)-3,3-Dimethyl-2-((S)-2-(methylamino)propanamido)butanoyl)-N-(4-(((3S,5S)-1-((S)-3,3-dimethyl-2-((S)-2-(methylamino)propanamido)butanoyl)-5-(((R)-1,2,3,4-tetrahydronaphthalen-1-yl)carbamoyl)pyrrolidin-3-yl)carbamoyl)benzyl)-N-((R)-1-(4-fluorophenyl)ethyl)-1,2,3,4-tetrahydroisoquinoline-3-carboxamide], which IC50 is on record?
The IC50 was 100 nM.

With `CN[C@@H](C)C(=O)N[C@H](C(=O)N1C[C@@H](NC(=O)c2ccc(CN(C(=O)[C@@H]3Cc4ccccc4CN3C(=O)[C@@H](NC(=O)[C@H](C)NC)C(C)(C)C)[C@H](C)C(c3ccccc3)c3ccccc3)cc2)C[C@H]1C(=O)N[C@@H]1CCCc2ccccc21)C(C)(C)C` [Example 21, (S)-2-((S)-3,3-Dimethyl-2-((S)-2-(methylamino)propanamido)butanoyl)-N-(4-(((3S,5S)-1-((S)-3,3-dimethyl-2-((S)-2-(methylamino)propanamido)butanoyl)-5-(((R)-1,2,3,4-tetra-hydronaphthalen-1-yl)carbamoyl)pyrrolidin-3-yl)carbamoyl)benzyl)-N-((R)-1,1-diphenylpropan-2-yl)-1,2,3,4-tetrahydro-isoquinoline-3-carboxamide] as the compound, how does the IC50 read?
The IC50 was 290 nM.

same assay, conditions: read-out: XIAP BIR3 FPA IC50

How did the IC50 turn out when `CN[C@@H](C)C(=O)N[C@H](C(=O)N1CC(NC(=O)CN(C(=O)[C@@H]2Cc3ccccc3CN2C(=O)[C@@H](NC(=O)[C@H](C)NC)C(C)(C)C)C(COC)c2ccccc2)C[C@H]1C(=O)NC1CCCc2ccccc21)C(C)(C)C` (stereo in doubt) [Example 40, (S)-2-((S)-3,3-Dimethyl-2-((S)-2-(methylamino)propanamido)butanoyl)-N-(2-(((3S,5S)-1-((S)-3,3-dimethyl-2-((S)-2-(methylamino)propanamido)butanoyl)-5-(((R)-1,2,3,4-tetrahydronaphthalen-1-yl)carbamoyl)pyrrolidin-3-yl)amino)-2-oxoethyl)-N-((S)-2-methoxy-1-phenylethyl)-1,2,3,4-tetrahydroisoquinoline-3-carboxamide] was run?
Its IC50 is 60 nM.
